Source: PubChem BioAssay (NCI)
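The compound was tested at five concentrations on cells cultured in 96-well plates, with a 48-hour exposure period. At the TGI there is no net growth.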

Experiments:
Experiment in all cases: inhibition of tumour cell growth, NCI panel, 48 h
[1] = test system: SN12C renal
[2] = test system: K-562 leukemia
[3] = test system: SK-MEL-28 melanoma
[4] = test system: PC-3 prostate
[5] = test system: HOP-92 NSCLC
[6] = test system: HOP-62 NSCLC
[7] = test system: SK-MEL-5 melanoma
[8] = test system: HCC-2998 colon
[9] = test system: SW-620 colon
[10] = test system: OVCAR-4 ovarian
[11] = test system: MDA-N
[12] = test system: ACHN renal
[13] = test system: SK-OV-3 ovarian
[14] = test system: UACC-257 melanoma
[15] = test system: HS 578T breast
[16] = test system: OVCAR-8 ovarian
[17] = test system: UACC-62 melanoma
[18] = test system: SK-MEL-2 melanoma
[19] = test system: SF-295 CNS
[20] = test system: NCI-H23 lung
[21] = test system: BT-549 breast
[22] = test system: OVCAR-5 ovarian
[23] = test system: TK-10 renal
[24] = test system: HCT-15 colon
[25] = test system: OVCAR-3 ovarian
[26] = test system: UO-31 renal
[27] = test system: SF-539 CNS
[28] = test system: HL-60(TB) leukemia
[29] = test system: EKVX NSCLC
[30] = test system: MDA-MB-435
[31] = test system: IGROV1 ovarian
[32] = test system: MALME-3M melanoma
[33] = test system: SNB-19 CNS
[34] = test system: A549 NSCLC
[35] = test system: NCI/ADR-RES ovarian
[36] = test system: NCI-H460 lung
[37] = test system: COLO 205 colon
[38] = test system: LOX IMVI melanoma
[39] = test system: HCT-116 colon
[40] = test system: MCF7 breast
[41] = test system: 786-0 renal
[42] = test system: CAKI-1 renal
[43] = test system: RPMI-8226 leukemia
[44] = test system: SF-268 CNS
[45] = test system: HT29 colon
[46] = test system: CCRF-CEM leukemia
[47] = test system: A498 renal
[48] = test system: SNB-75 CNS
[49] = test system: U251 CNS
[50] = test system: M14 melanoma
[51] = test system: NCI-H226 lung
[52] = test system: KM12 colon
[53] = test system: SR leukemia
[54] = test system: MDA-MB-231 breast
[55] = test system: DU-145 prostate
[56] = test system: RXF 393 renal

C/C=C1\CNC1C(=O)O (configuration not stated) was tested. Which TGI [1] did it give?
The TGI was > 100 µM.

And the TGI [2]?
Its TGI is > 100 µM.

And the TGI [3]?
The TGI was > 100 µM.

What about the TGI [4] of the same compound?
Its TGI is > 100 µM.

And the TGI [5]?
The TGI was > 100 µM.

And the TGI [6]?
The TGI was > 100 µM.

And the TGI [7]?
Its TGI is > 100 µM.

What about the TGI [8] of the same compound?
Its TGI is > 100 µM.

What about the TGI [9] of the same compound?
The TGI was > 100 µM.

What about the TGI [10] of the same compound?
Its TGI is > 100 µM.

And the TGI [11]?
Its TGI is > 100 µM.

And the TGI [12]?
Its TGI is > 100 µM.

What about the TGI [13] of the same compound?
Its TGI is > 100 µM.

What about the TGI [14] of the same compound?
Its TGI is > 100 µM.

What about the TGI [15] of the same compound?
The TGI was > 100 µM.

And the TGI [16]?
The TGI was > 100 µM.

And the TGI [17]?
Its TGI is > 100 µM.

And the TGI [18]?
The TGI was > 100 µM.

And the TGI [19]?
The TGI was > 100 µM.

And the TGI [20]?
Its TGI is > 100 µM.

And the TGI [21]?
The TGI was > 100 µM.

And the TGI [22]?
The TGI was > 100 µM.

What about the TGI [23] of the same compound?
The TGI was > 100 µM.

What about the TGI [24] of the same compound?
Its TGI is > 100 µM.

What about the TGI [25] of the same compound?
Its TGI is > 100 µM.

What about the TGI [26] of the same compound?
Its TGI is > 100 µM.

And the TGI [27]?
Its TGI is > 100 µM.

And the TGI [28]?
Its TGI is > 100 µM.

What about the TGI [29] of the same compound?
Its TGI is > 100 µM.

What about the TGI [30] of the same compound?
The TGI was > 100 µM.

What about the TGI [31] of the same compound?
The TGI was > 100 µM.

What about the TGI [32] of the same compound?
Its TGI is > 100 µM.

What about the TGI [33] of the same compound?
Its TGI is > 100 µM.

What about the TGI [34] of the same compound?
Its TGI is > 100 µM.

And the TGI [35]?
The TGI was > 100 µM.

What about the TGI [36] of the same compound?
The TGI was > 100 µM.

What about the TGI [37] of the same compound?
Its TGI is > 100 µM.

What about the TGI [38] of the same compound?
The TGI was > 100 µM.

And the TGI [39]?
The TGI was > 100 µM.

And the TGI [40]?
Its TGI is > 100 µM.

And the TGI [41]?
Its TGI is > 100 µM.

What about the TGI [42] of the same compound?
The TGI was > 100 µM.

And the TGI [43]?
Its TGI is > 100 µM.

What about the TGI [44] of the same compound?
Its TGI is > 100 µM.

What about the TGI [45] of the same compound?
Its TGI is > 100 µM.

And the TGI [46]?
Its TGI is > 100 µM.

And the TGI [47]?
The TGI was > 100 µM.

Cc1ccc2[nH]c3c(c2c1)CCC/C3=N/N=C(N)N was tested. Which TGI [1] did it give?
The TGI was 3.05 µM.

What about the TGI [2] of the same compound?
The TGI was 5 µM.

And the TGI [48]?
Its TGI is 4.54 µM.

What about the TGI [4] of the same compound?
The TGI was 10.2 µM.

What about the TGI [5] of the same compound?
Its TGI is 6.5 µM.

And the TGI [7]?
Its TGI is 3.4 µM.

What about the TGI [8] of the same compound?
The TGI was 3.3 µM.

What about the TGI [9] of the same compound?
Its TGI is > 100 µM.

And the TGI [10]?
Its TGI is 11.4 µM.

And the TGI [11]?
Its TGI is 2.89 µM.

What about the TGI [12] of the same compound?
Its TGI is 3.64 µM.

And the TGI [13]?
Its TGI is 38.3 µM.

And the TGI [14]?
Its TGI is 7.41 µM.

What about the TGI [16] of the same compound?
The TGI was 4.49 µM.

What about the TGI [17] of the same compound?
The TGI was 4.73 µM.

And the TGI [18]?
The TGI was 3.41 µM.

What about the TGI [49] of the same compound?
Its TGI is 4.72 µM.

What about the TGI [20] of the same compound?
Its TGI is 9.97 µM.

What about the TGI [50] of the same compound?
Its TGI is 3.15 µM.

What about the TGI [21] of the same compound?
Its TGI is 41.1 µM.

What about the TGI [22] of the same compound?
Its TGI is 5.53 µM.

What about the TGI [51] of the same compound?
The TGI was 10.1 µM.

And the TGI [52]?
Its TGI is 3.16 µM.

And the TGI [25]?
Its TGI is 8.21 µM.

What about the TGI [28] of the same compound?
The TGI was > 100 µM.

And the TGI [29]?
The TGI was 6.78 µM.

What about the TGI [31] of the same compound?
Its TGI is 3.54 µM.

And the TGI [32]?
The TGI was 5.45 µM.

What about the TGI [33] of the same compound?
Its TGI is 4.76 µM.

And the TGI [53]?
The TGI was 5.64 µM.

What about the TGI [36] of the same compound?
Its TGI is 2.89 µM.

What about the TGI [54] of the same compound?
Its TGI is 3.04 µM.

And the TGI [37]?
The TGI was 3.13 µM.

And the TGI [55]?
The TGI was 3.34 µM.

And the TGI [56]?
Its TGI is 3.95 µM.

What about the TGI [38] of the same compound?
The TGI was 4.39 µM.

And the TGI [42]?
Its TGI is 2.94 µM.

And the TGI [43]?
The TGI was 5.12 µM.

And the TGI [45]?
Its TGI is 3.39 µM.

What about the TGI [47] of the same compound?
Its TGI is 45.2 µM.
